Where a SMILES comes first, the peptide text is derived from it.
Columns and labels:
[1] = tested on: PrrC; settings: stated in the introduction; cited from earlier work
[2] = molecular target: T1, PrrC anticodon nuclease (ACNase), His6-tagged D222E mutant (Escherichia coli, UniProt P17223, D222E); assay: ACNase assay: inhibition of PrrC-catalyzed cleavage of tRNA^Lys or ASL analogs; format: biochemical
T1 sequence (P17223 1-396 D222E): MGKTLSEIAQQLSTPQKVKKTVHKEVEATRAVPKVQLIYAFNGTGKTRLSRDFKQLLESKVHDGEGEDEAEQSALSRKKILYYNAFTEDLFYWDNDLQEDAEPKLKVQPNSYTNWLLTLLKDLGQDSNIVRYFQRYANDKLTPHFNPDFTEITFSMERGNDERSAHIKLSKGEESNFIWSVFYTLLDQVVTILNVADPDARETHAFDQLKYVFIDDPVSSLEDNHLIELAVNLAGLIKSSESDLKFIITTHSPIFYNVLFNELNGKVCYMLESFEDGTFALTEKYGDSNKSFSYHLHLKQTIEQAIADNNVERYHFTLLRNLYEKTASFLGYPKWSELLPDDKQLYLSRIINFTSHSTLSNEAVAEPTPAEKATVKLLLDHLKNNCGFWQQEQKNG

Row | Structure (SMILES) | Affinity for PrrC (range) [1] | IC50 [2] [µM]
1 | Nc1ncnc2c1ncn2[C@@H]1O[C@H](COP(=O)(O)OP(=O)(O)OP(=O)(O)O)[C@@H](O)[C@H]1O [ATP] | mM-range | –
2 | Nc1nc2c(ncn2[C@@H]2O[C@H](COP(=O)(O)OP(=O)(O)OP(=O)(O)O)[C@@H](O)[C@H]2O)c(=O)[nH]1 [GTP] | mM-range | –
3 | CC(=O)N[C@@H](CCCCN)C(=O)N[C@@H](Cc1ccc(O)cc1)C(=O)NCC(=O)N[C@@H](CC(=O)O)C(=O)N[C@@H](CO)C(=O)N[C@@H](CC(N)=O)C(=O)N[C@@H](CCCCN)C(=O)N[C@@H](CO)C(=O)N[C@@H](Cc1ccccc1)C(=O)N[C@@H](CO)C(=O)N[C@@H](Cc1ccc(O)cc1)C(N)=O [LARP, Ac-KYGDSNKSFSY-NH2] (Ac-KYGDSNKSFSY-NH2) | – | ~100
